What was measured:
[1] = target: T1, Recombinant human c-Met protein (Homo sapiens, UniProt P08581); test: c-Met receptor tyrosine kinase activity assay (NADH read-out); assay type: biochemical; details: c-Met 30 nM, ATP 30 μM, 100 min at 32° C.
T1 construct: purchased Invitrogen
Method: c-Met Receptor Tyrosine Kinase Activity Assay (NADH Read-Out):
Recombinant human c-Met protein (Invitrogen, Carlsbad, Calif., USA) is used. As substrate for the kinase reaction the peptide KKKSPGEYVNIEFG (JPT, Germany) is used. For the assay, 1 μL of a 51-fold concentrated solution of the test compound in DMSO is pipetted into a white 384-well microtiter plate (Greiner Bio-One, Frickenhausen, Germany). 25 μL of a solution of c-Met (final concentration 30 nM) and pyruvate kinase/lactate dehydrogenase (Roche Diagnostics, Mannheim, Germany; final concentration 8 mg/L) in assay buffer [3-(N-morpholino)propanesulfonic acid (MOPS), 50 mM, pH 7; MgCl2, 10 mM; bovine serum albumin (BSA), 0.01%; Triton X 100, 0.01%; DTT, 2 mM] are added, and the mixture is incubated for 5 min at room temperature. Then, the kinase reaction is started by the addition of 25 μL of a solution of adenosine triphosphate (ATP, final concentration 30 μM), substrate (final concentration 100 μM), nicotinamide adenine dinucleotide (NADH, final concentration 50 μM) and dithiothreitol (DTT, final concentration 2 mM) in assay buffer, and the resulting mixture is incubated for a reaction time of 100 min at 32° C.
Subsequently, the amount of phosphorylated substrate is evaluated by measurement of the decrease of NADH fluorescence. Therefore, the fluorescence emissions at 465 nm after excitation at 340 nm is measured in a fluorescence reader, e.g. Tecan Ultra (Tecan, Männedorf, Switzerland). The data are normalised (enzyme reaction without inhibitor=0% inhibition; all other assay components but no enzyme=100% inhibition).
Some representative IC50 values are listed in Table 1 below together with corresponding data for a structurally related, non-fluorinated compound from prior art (cf. WO 2008/071451): […]

[2] = Caco-2 permeability assay; assay type: in vitro ADME; details: human, apical to basolateral, test concentration 2 μM, 2 h at 37° C., read-out: Caco-2 permeability PappA-B
From the text: Caco-2 Permeability Assay:
The in vitro permeation of a test compound across a Caco-2 cell monolayer is a well-established assay system to predict the permeability from the gastro-intestinal tract [cf. P. Artursson and J. Karlsson: Correlation between oral drug absorption in humans and apparent drug permeability coefficients in human intestinal epithelial (Caco-2) cells, Biochem. Biophys. 175 (3), 880-885 (1991)]. The permeability of the compounds of the present invention in such Caco-2 cells was deter-mined as described below:
Human Caco-2 cells (ACC No. 169, DSMZ, German Collection of Microorganisms and Cell Cultures, Braunschweig, Germany) are seeded on 24-well insert plates and are allowed to grow for 14-16 days. For permeability studies, the test compounds are dissolved in DMSO and diluted to the final test concentration of 2 μM with transport buffer [Hanks' Buffered Salt Solution, Gibco/Invitrogen, further supplemented with glucose (final concentration 19.9 mM) and HEPES (final concentration 9.8 mM)]. For determination of the apical to basolateral permeability (PappA-B), the test compound solution is added to the apical side of the cell monolayer and transport buffer to the basolateral side of the monolayer; for determination of the basolateral to apical permeability (PappB-A), the test compound solution is added to the basolateral side of the cell monolayer and transport buffer to the apical side of the monolayer. Samples are taken from the donor compartment at the beginning of the experiment to confirm mass balance. After an incubation of 2 h at 37° C., samples are taken from both compartments. Samples are analyzed by LC-MS/MS, and the apparent permeability coefficients are calculated. Lucifer Yellow permeability is assayed for each cell monolayer to ensure cell monolayer integrity, and the permeability of Atenolol (low permeability marker) and Sulfasalazine (marker for active excretion) is determined for each batch as quality control. […]

[3] = target: T2, recombinant kinase domain of the human c-Met (amino acids 960-1390) (Homo sapiens, UniProt P08581); test: c-Met receptor tyrosine kinase homogeneous time-resolved fluorescence assay (alternative format); assay type: biochemical; details: HTRF format; ATP 10 μM, 30 min at 22° C.
T2 construct: kinase domain of the human c-Met (amino acids 960-1390); His6 (N); made in house; host or cells: insect cells (SF21)
T2 sequence (P08581 960-1390): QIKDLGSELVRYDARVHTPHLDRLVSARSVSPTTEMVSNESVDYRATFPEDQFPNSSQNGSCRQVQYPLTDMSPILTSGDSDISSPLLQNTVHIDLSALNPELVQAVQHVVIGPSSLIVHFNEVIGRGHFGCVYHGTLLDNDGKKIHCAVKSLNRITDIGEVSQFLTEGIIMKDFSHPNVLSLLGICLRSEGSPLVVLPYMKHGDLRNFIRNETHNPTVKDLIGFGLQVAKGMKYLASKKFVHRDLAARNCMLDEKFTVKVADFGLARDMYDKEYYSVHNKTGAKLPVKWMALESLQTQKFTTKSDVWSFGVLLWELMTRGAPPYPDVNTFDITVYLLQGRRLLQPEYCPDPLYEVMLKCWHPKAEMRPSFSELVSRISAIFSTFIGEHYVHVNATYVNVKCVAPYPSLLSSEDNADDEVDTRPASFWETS
From the text: c-Met Receptor Tyrosine Kinase Homogeneous Time-Resolved Fluorescence Assay (Alternative Format):
The N-terminally His6-tagged recombinant kinase domain of the human c-Met (amino acids 960-1390), expressed in insect cells (SF21) and purified by Ni-NTA affinity chromatography and consecutive size exclusion chromatography (Superdex 200), is used. Alternatively, commercially available c-Met (Millipore) can be used. As substrate for the kinase reaction, the biotinylated poly-Glu,Tyr (4:1) copolymer (#61GT0BLC, Cis Biointernational, Marcoule, France) is used.
For the assay, 50 nL of a 100-fold concentrated solution of the test compound in DMSO is pipetted into a black low-volume 384-well microtiter plate (Greiner Bio-One, Frickenhausen, Germany). […]
The resulting mixture is incubated for 1 h at 22° C. to allow the binding of the biotinylated phosphorylated peptide to the streptavidine-XLent and the PT66-Eu-chelate. Subsequently, the amount of phosphorylated substrate is evaluated by measurement of the resonance energy transfer from the PT66-Eu-chelate to the streptavidine-XLent. Therefore, the fluorescence emissions at 620 nm and 665 nm after excitation at 350 nm are measured in an HTRF reader, e.g. Rubystar (BMG Lab-technologies, Offenburg, Germany) or Viewlux (Perkin-Elmer). […]

T1 sequence (P08581 25-1390): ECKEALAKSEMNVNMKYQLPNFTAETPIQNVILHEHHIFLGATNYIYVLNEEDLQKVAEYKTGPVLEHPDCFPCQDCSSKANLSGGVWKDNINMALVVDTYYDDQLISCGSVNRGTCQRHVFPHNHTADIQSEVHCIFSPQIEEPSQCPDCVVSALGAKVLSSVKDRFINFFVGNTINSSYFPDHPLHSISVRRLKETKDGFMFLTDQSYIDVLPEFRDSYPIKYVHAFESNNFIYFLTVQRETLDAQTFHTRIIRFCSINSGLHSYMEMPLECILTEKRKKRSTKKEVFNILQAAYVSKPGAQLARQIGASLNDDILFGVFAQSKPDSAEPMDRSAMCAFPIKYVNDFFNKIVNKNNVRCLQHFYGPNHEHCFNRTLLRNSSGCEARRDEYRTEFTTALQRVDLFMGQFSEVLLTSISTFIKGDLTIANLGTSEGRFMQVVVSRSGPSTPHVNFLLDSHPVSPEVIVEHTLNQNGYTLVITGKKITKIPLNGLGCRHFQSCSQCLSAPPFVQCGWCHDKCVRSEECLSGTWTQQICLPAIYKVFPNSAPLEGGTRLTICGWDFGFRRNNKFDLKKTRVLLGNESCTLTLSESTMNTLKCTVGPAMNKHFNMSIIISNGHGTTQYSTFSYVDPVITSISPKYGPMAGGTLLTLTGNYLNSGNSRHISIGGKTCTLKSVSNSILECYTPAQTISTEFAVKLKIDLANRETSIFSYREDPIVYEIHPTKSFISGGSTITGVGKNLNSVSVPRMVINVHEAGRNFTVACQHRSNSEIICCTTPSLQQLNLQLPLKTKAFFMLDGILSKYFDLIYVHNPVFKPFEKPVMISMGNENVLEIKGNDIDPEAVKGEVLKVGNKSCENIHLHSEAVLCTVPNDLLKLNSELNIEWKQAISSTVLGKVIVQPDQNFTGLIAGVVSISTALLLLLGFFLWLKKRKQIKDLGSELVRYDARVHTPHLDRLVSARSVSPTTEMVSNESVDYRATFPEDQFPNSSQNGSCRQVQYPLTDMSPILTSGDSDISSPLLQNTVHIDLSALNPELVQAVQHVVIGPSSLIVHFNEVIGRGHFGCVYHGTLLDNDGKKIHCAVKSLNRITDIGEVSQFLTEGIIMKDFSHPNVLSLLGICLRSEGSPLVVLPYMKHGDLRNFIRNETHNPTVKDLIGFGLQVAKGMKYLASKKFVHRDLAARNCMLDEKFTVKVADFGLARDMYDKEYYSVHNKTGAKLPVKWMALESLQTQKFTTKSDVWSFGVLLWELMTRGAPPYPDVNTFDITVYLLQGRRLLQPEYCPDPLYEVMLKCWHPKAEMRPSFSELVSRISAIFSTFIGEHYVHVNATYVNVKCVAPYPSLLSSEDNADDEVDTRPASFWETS

SMILES | IC50 [1] [nM] | Papp A→B at 2 h, 2 μM [2] [×10⁻⁶ cm/s] | IC50 [3] [nM]
Cc1n[nH]c2cc(F)c(C3C(C#N)=C(CCC(F)(F)F)NC(C(F)(F)F)=C3C#N)cc12 (racemic) [Example 7, 4-(6-Fluoro-3-methyl-1H-indazol-5-yl)-2-(trifluoromethyl)-6-(3,3,3-trifluoropropyl)-1,4-dihydro-pyridine-3,5-dicarbonitrile] | 52 | 20.4 | 
Cc1n[nH]c2cc(F)c(C3C(C#N)=C(CCC(F)(F)F)NC(C(F)F)=C3C#N)cc12 (racemic) [Example 10, 2-(Difluoromethyl)-4-(6-fluoro-3-methyl-1H-indazol-5-yl)-6-(3,3,3-trifluoropropyl)-1,4-dihydropyridine-3,5-dicarbonitrile] | 26 |  | 11
CCC1=C(C#N)C(c2ccc3[nH]nc(C)c3c2)C(C#N)=C(C(F)(F)F)N1 (centres unmarked) [Example 4, 2-Ethyl-4-(3-methyl-1H-indazol-5-yl)-6-(trifluoromethyl)-1,4-dihydropyridine-3,5-dicarbonitrile] |  |  | 11
N#CC1=C(CCC(F)(F)F)NC(C(F)(F)F)=C(C#N)C1c1ccc2[nH]ncc2c1 (centres unmarked) [Example 16, 4-(1H-Indazol-5-yl)-2-(trifluoromethyl)-6-(3,3,3-trifluoropropyl)-1,4-dihydro-pyridine-3,5-dicarbonitrile] | 29 |  | 

More lines, in order of falling IC50 [1], values ahead:

IC50 [1] [nM] | Papp A→B at 2 h, 2 μM [2] [×10⁻⁶ cm/s] | IC50 [3] [nM] | SMILES
17 |  |  | Cc1n[nH]c2ccc(C3C(C#N)=C(CCC(F)(F)F)NC(C(F)F)=C3C#N)cc12 (centres unmarked) [Example 14, 2-(Difluoromethyl)-4-(3-methyl-1H-indazol-5-yl)-6-(3,3,3-trifluoropropyl)-1,4-dihydropyridine-3,5-dicarbonitrile]
16 | 21.7 |  | Cc1n[nH]c2ccc(C3C(C#N)=C(CCC(C)C)NC(C(F)(F)F)=C3C#N)cc12 (racemic) [Example 1, 2-(3-Methylbutyl)-4-(3-methyl-1H-indazol-5-yl)-6-(trifluoromethyl)-1,4-dihydropyridine-3,5-dicarbonitrile]
9 | 25.9 |  | CCC1=C(C#N)C(c2ccc3[nH]nc(C)c3c2)C(C#N)=C(C(F)F)N1 (centres unmarked) [Example 13, 2-(Difluoromethyl)-6-ethyl-4-(3-methyl-1H-indazol-5-yl)-1,4-dihydropyridine-3,5-dicarbonitrile]
